For data set [1] the following is noted: cited from earlier work.
Data set [2] addresses T1, Cathepsin K (Homo sapiens, UniProt P43235).
T1 construct: purchased Enzo Life Sciences
T1 sequence (P43235 115-329): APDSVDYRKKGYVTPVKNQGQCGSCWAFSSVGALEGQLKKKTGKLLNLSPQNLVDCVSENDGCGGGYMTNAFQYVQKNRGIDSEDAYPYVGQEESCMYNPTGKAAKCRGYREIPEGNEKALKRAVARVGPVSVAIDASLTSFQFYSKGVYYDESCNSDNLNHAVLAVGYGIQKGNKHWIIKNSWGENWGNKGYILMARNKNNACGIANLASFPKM
Conditions: values found in literature; cited from earlier work.

Data set [3] relates to human osteoclasts. As to the kind of experiment: Human osteoclasts co-cultured with human multiple myeloma cells (8226-LUC). Type of data set: cell-based. Conditions: co-cultured with 8226-LUC.
The target of data set [4] is T1, Cathepsin K. The data set can be described thus: Enzyme studies: cleavage of the probe by activated cathepsin K, initial rates, Lineweaver-Burke plot. The class given is biochemical. On the procedure: Kinetic parameters Kcat and Km were determined from initial rates at 37° C. and pH 5.5 in a buffer consisting of 50 mM sodium acetate buffer with 2.5 mM EDTA, 1 mM DTT and 0.01% TRITON X-100®. Enzyme concentration was 2.5 nM, substrate concentration ranged from 0.0781 to 2.50 μM. Fluorescence measurements were done every 1 min using a Biotek Synergy H4 plate reader with black Corning 3720 96-well plates. Parameters were determined using a Lineweaver-Burke plot. Fluorescence calibration was obtained using compound 9a at concentrations between 0.00977 and 2.5 μM. Background fluorescence was estimated using intact 10a at concentrations ranging from 0.0781 to 2.50 μM.
Cathepsin K was prepared by activation of procathepsin K purchased from Enzo Life Sciences. Activation was carried out by adding […], pH 3.5 sodium acetate buffer in a 1:2 ratio to as-received proenzyme solution and leaving at 21° C. for 30 min before dilution with assay buffer. Solutions of activated enzyme were stored on ice and used within 10 min. Buffers were prepared in house according to concentrations provided by Enzo Life Sciences.

Data set [5] relates to osteoclast activity. The data set can be described thus: Fluorescence imaging of maxilla ex vivo in mice after tooth extraction. Conditions: young mice, 5 nMol/mouse. An excerpt: FIG. 8, panels a-c, show White light (left) and fluorescence (right) images of mice after tooth extraction. Panel a) Vehicle control; Panel b) OFS-1 (5a) 5 nMol/mouse; Panel c) Positive control (4a) 5 nMol/mouse

Data set [6] in a line: Adsorption on calcium phosphate substrates. The class given is physicochemical.
Data set [7] has as its system 8226-LUC human multiple myeloma cells. The data set can be described thus: OFS-1 activation by multiple myeloma in humanized BLT mice. Particulars: humanized mice carrying 8226-LUC cells. Type of data set: in vivo. As for the experimental part: FIG. 9, panels a-c, illustrates OFS-1 activation by multiple myeloma in humanized mice. 8226-LUC human multiple myeloma cells were injected to humanized BLT mice.

For data set [8], the system named is monocyte-derived human osteoclasts. The data set can be described thus: Osteoclasts cultured on calcium phosphate coated microwells preadsorbed with probe, fluorescence timelapse. The class given is cell-based. The text has this:
We attribute this to a lack of calcium phosphate for the probe to bind to. In several cases, osteoclasts can be seen migrating on the surface without completely dissolving the calcium phosphate and leaving a trail of enhanced fluorescence in their wake (see, e.g., FIG. 4). This is how the probe is presumed to function in vivo, by fluorescently labeling any regions exposed to osteoclast resorptive activity. […] Another phenomenon observed in all videos was a transient decrease in fluorescence within the boundaries of the osteoclast sealing zone, seen as rapidly moving dark areas around the cells (see, e.g., FIG. 5). This effect was expected and results from the pH sensitivity of carboxyfluorescein. The pH under an active osteoclast has been reported to be as low as 4.5 (Teitelbaum (2000) Science, 289(5484): 1504-1508). Carboxyfluorescein cyclizes to a nonfluorescent form when protonated and has a pKa of approximately 6.5 (Han & Burgess (2010) Chem. Rev. 110: 2709-2728; Massou et al. (2000) Biochem. Educ. 28:171-173). Thus fluorescent intensity is decreased. This is further evidence that the probe is exposed to the sub-osteoclast environment as intended. Another phenomenon observed in the timelapses was concentrated fluorescent intensity in cells themselves, both attached and detached from the substrate. […]

Entries after “also recorded” stand apart in the source; their conditions may differ. Read-outs that look alike come from different tables or passages of the source. *: point of attachment. pamidronate = 1-hydroxy-1,1-bisphosphonate, amide on Lys carboxyl, O=P(O)(O)C(O)(CCN*)P(=O)(O)O; BHQ‑1 = Black Hole Quencher-1; βAla = NCCC(=O)O

As to `O=C(O)c1ccc2c(c1)C(=O)OC21c2ccc(O)cc2Oc2cc(O)ccc21` [Carboxyfluorescein, 5-carboxyfluorescein], the pKa entry in data set [1] is reported as “approximately 6.5”.

For the molecule Abz-HPGGPQ-EDN2Ph, in data set [2], the “Kcat (literature value)” value is 0.5 ± 0.03 s⁻¹ and the Km is 1.2 ± 0.2 µM.

“OFS-1: bone-targeted pamidronate probe with 5-FAM fluorophore and BHQ-1 quencher linked by cathepsin K peptide Gly-His-Pro-Gly-Gly-Pro-Gln-Gly ({BHQ‑1}-GHPGGPQG-{βAla-K(5-FAM)-pamidronate})”: the “OFS-1 activation by osteoclasts in co-culture with multiple myeloma cells” value in data set [3] was “significantly increased OFS-1 activation”. Moreover, in data set [4] (in solution at 37° C., pH 5.5), the Kcat was 0.2 ± 0.03 s⁻¹. Besides, the Michaelis constant (Km) in data set [4] (in solution at 37° C., pH 5.5) was 1.7 ± 0.2 µM. Moreover, the “Cleavage/activation by cathepsin K” value in data set [4] (purified cathepsin K) is given as “cleaved by cathepsin K albeit at a slower rate; also recorded: activated by purified cathepsin K”. The “Fluorescent signal in maxilla ex vivo after tooth extraction” value in data set [5] is recorded as “increased fluorescent signal in maxilla ex vivo; also recorded: enhanced signal in response to tooth extraction”. The “Adsorption on calcium phosphate substrates” value in data set [6] was “avidly adsorbed on calcium phosphate substrates; also recorded: found to adsorb on calcium phosphate substrates”. For the same molecule, the “Probe activation / fluorescent signal at multiple myeloma engrafted sites” value in data set [7] is “localized at the multiple myeloma (8226-LUC) engrafted site; also recorded: Strong activation”. Further, the “Fluorescent signal in response to osteoclast resorptive activity” value in data set [8] is recorded as “give a fluorescent signal in response to resorptive activity”; in data set [8] (listed as USC FRET-1), “increased fluorescence around cells that were actively resorbing hydroxyapatite (HA)”.

As usually defined, the Km is the substrate concentration at which the rate is half of its maximum.
